US4110327A, “2,3 Diketo-piperazinocarbonylamino alkanoic acids and derivatives” (Toyama Chemical Co., Ltd., priority 1974, dated 1978)

What was measured:
Assay type in all cases: cell-based
Escherichia coli NIHJ = assay: MIC against standard strain, plate method; conditions: unit assumed
Method: (§1) The minimum inhibitory concentrations (MIC) was determined by the plate method disclosed in "Chemotherapy" (Japan), Vol. 16, (1968), pages 98 - 99. The culture medium used was a Heart infusion agar (pH 7.4). The number of the cells per plate used in the inoculum as 10^4 (10^6 cells/ml).

Klebsiella pneumoniae [1] = assay: MIC against standard strain, plate method; conditions: unit assumed
Method: as §1

Proteus vulgaris 3027 = assay: MIC against standard strain, plate method; conditions: Proteus vulgaris 3027, standard strain; unit assumed
Method: as §1

[2] = test system: Pseudomonas aeruginosa I.F.O.; assay: MIC against standard strain, plate method; conditions: unit assumed
Method: as §1

[3] = test system: Staphylococcus aureus 209p; assay: MIC against standard strain, plate method; conditions: unit assumed
Method: as §1

Staphylococcus aureus = assay: MIC against clinical isolates; conditions: unit assumed
Pseudomonas aeruginosa = assay: MIC against clinical isolates; conditions: unit assumed
Klebsiella pneumoniae [4] = assay: MIC against clinical isolates; conditions: unit assumed
Escherichia coli = assay: MIC against clinical isolates; conditions: unit assumed

Measured: MIC

CN1CCN(C(=O)N[C@@H](C(=O)N[C@@H]2C(=O)N3C(C(=O)[O-])=C(C[n+]4ccccc4)CS[C@H]23)c2ccccc2)C(=O)C1=O [compound 68]
6.25 µg/mL: Staphylococcus aureus; clinical isolate F-4 | Pseudomonas aeruginosa; clinical isolate GN 82
50 µg/mL: Pseudomonas aeruginosa; clinical isolate GN 1035 | Pseudomonas aeruginosa; clinical isolate GN 2565
1.57 µg/mL: Proteus vulgaris 3027 | [3]
< 0.79 µg/mL: Escherichia coli NIHJ | Klebsiella pneumoniae [1]
0.78 µg/mL: Staphylococcus aureus; clinical isolate F-3 | Staphylococcus aureus; clinical isolate F-5 | Staphylococcus aureus; clinical isolate MS 8619
12.5 µg/mL: [2] | Pseudomonas aeruginosa; clinical isolate GN 163 | Pseudomonas aeruginosa; clinical isolate GN 376 | Pseudomonas aeruginosa; clinical isolate GN 383 | Pseudomonas aeruginosa; clinical isolate GN 1091 | Pseudomonas aeruginosa; clinical isolate GN 2987
1.56 µg/mL: Staphylococcus aureus; clinical isolate F-1 | Staphylococcus aureus; clinical isolate F-2 | Staphylococcus aureus; clinical isolate MS 8588 | Staphylococcus aureus; clinical isolate MS 8596 | Staphylococcus aureus; clinical isolate MS 8684 | Klebsiella pneumoniae [4]; clinical isolate GN 917
25 µg/mL: Pseudomonas aeruginosa; clinical isolate GN 244 | Pseudomonas aeruginosa; clinical isolate S-1 | Pseudomonas aeruginosa; clinical isolate S-2 | Pseudomonas aeruginosa; clinical isolate S-3 | Pseudomonas aeruginosa; clinical isolate S-4
3.13 µg/mL: Staphylococcus aureus; clinical isolate MS 8713 | Pseudomonas aeruginosa; clinical isolate GN 221

CC(=O)OCC1=C(C(=O)O)N2C(=O)[C@@H](NC(=O)Cc3cccs3)[C@H]2SC1 [Sodium Cephalothin, SodiumCephalothin, reference compound]
12.5 µg/mL: Escherichia coli; clinical isolate GN 3452 | Escherichia coli; clinical isolate GN 3481 | Klebsiella pneumoniae [4]; clinical isolate GN 4081
< 1.57 µg/mL: Escherichia coli NIHJ | Proteus vulgaris 3027 | [3]
> 200 µg/mL: [2] | Pseudomonas aeruginosa; clinical isolate GN 82 | Pseudomonas aeruginosa; clinical isolate GN 163 | Pseudomonas aeruginosa; clinical isolate GN 221 | Pseudomonas aeruginosa; clinical isolate GN 244 | Pseudomonas aeruginosa; clinical isolate GN 376 | Pseudomonas aeruginosa; clinical isolate GN 383 | Pseudomonas aeruginosa; clinical isolate GN 1035 | Pseudomonas aeruginosa; clinical isolate GN 1091 | Pseudomonas aeruginosa; clinical isolate GN 2565 | Pseudomonas aeruginosa; clinical isolate GN 2987 | Pseudomonas aeruginosa; clinical isolate S-1 | Pseudomonas aeruginosa; clinical isolate S-2 | Pseudomonas aeruginosa; clinical isolate S-3 | Pseudomonas aeruginosa; clinical isolate S-4
3.13 µg/mL: Klebsiella pneumoniae [4]; clinical isolate GN 917
50 µg/mL: Escherichia coli; clinical isolate GN 3611
25 µg/mL: Escherichia coli; clinical isolate GN 3465 | Escherichia coli; clinical isolate K-4
6.25 µg/mL: Escherichia coli; clinical isolate GN 3435 | Escherichia coli; clinical isolate K-1 | Escherichia coli; clinical isolate K-2 | Klebsiella pneumoniae [4]; clinical isolate GN 4117
1.56 µg/mL: Staphylococcus aureus; clinical isolate F-5
100 µg/mL: Klebsiella pneumoniae [1] | Escherichia coli; clinical isolate K-3
< 0.4 µg/mL: Staphylococcus aureus; clinical isolate F-1 | Staphylococcus aureus; clinical isolate F-2 | Staphylococcus aureus; clinical isolate F-3 | Staphylococcus aureus; clinical isolate F-4 | Staphylococcus aureus; clinical isolate MS 8588 | Staphylococcus aureus; clinical isolate MS 8596 | Staphylococcus aureus; clinical isolate MS 8619 | Staphylococcus aureus; clinical isolate MS 8684 | Staphylococcus aureus; clinical isolate MS 8713

CCN1CCN(C(=O)N[C@@H](C(=O)N[C@@H]2C(=O)N3[C@@H]2SC(C)(C)[C@@H]3C(=O)O)c2ccccc2)CC1=O [compound 19]
100 µg/mL: Pseudomonas aeruginosa; clinical isolate GN 1035 | Klebsiella pneumoniae [4]; clinical isolate GN 3850
50 µg/mL: Klebsiella pneumoniae [1] | Pseudomonas aeruginosa; clinical isolate GN 2565 | Pseudomonas aeruginosa; clinical isolate S-1 | Pseudomonas aeruginosa; clinical isolate S-2 | Pseudomonas aeruginosa; clinical isolate S-3 | Pseudomonas aeruginosa; clinical isolate S-4 | Klebsiella pneumoniae [4]; clinical isolate GN 917
3.13 µg/mL: Proteus vulgaris 3027
12.5 µg/mL: [2] | Pseudomonas aeruginosa; clinical isolate GN 82 | Pseudomonas aeruginosa; clinical isolate GN 163 | Pseudomonas aeruginosa; clinical isolate GN 221 | Pseudomonas aeruginosa; clinical isolate GN 376 | Pseudomonas aeruginosa; clinical isolate GN 383 | Pseudomonas aeruginosa; clinical isolate GN 1091 | Pseudomonas aeruginosa; clinical isolate GN 2987
25 µg/mL: Pseudomonas aeruginosa; clinical isolate GN (number not given; Table 5-3)
> 200 µg/mL: Klebsiella pneumoniae [4]; clinical isolate GN 4081 | Klebsiella pneumoniae [4]; clinical isolate GN 4117
< 1.57 µg/mL: Escherichia coli NIHJ | [3]

CCN1CCN(C(=O)NC(C(=O)NC2C(=O)N3C(C(=O)O)=C(CSc4nnnn4C)CSC23)c2ccccc2)C(=O)C1=O (centres unmarked) [compound 69]
< 0.4 µg/mL: Klebsiella pneumoniae [1]
3.13 µg/mL: Staphylococcus aureus; clinical isolate F-1 | Staphylococcus aureus; clinical isolate F-4
6.25 µg/mL: Pseudomonas aeruginosa; clinical isolate GN 221
1.56 µg/mL: Staphylococcus aureus; clinical isolate F-2 | Staphylococcus aureus; clinical isolate MS 8588 | Staphylococcus aureus; clinical isolate MS 8596 | Staphylococcus aureus; clinical isolate MS 8684 | Staphylococcus aureus; clinical isolate MS 8713
< 0.79 µg/mL: Escherichia coli NIHJ | Proteus vulgaris 3027 | [3]
0.78 µg/mL: Staphylococcus aureus; clinical isolate F-3 | Staphylococcus aureus; clinical isolate F-5 | Staphylococcus aureus; clinical isolate MS 8619 | Klebsiella pneumoniae [4]; clinical isolate GN 917
12.5 µg/mL: [2] | Pseudomonas aeruginosa; clinical isolate GN 82 | Pseudomonas aeruginosa; clinical isolate GN 163 | Pseudomonas aeruginosa; clinical isolate GN 376 | Pseudomonas aeruginosa; clinical isolate GN 1091 | Pseudomonas aeruginosa; clinical isolate GN 2987
50 µg/mL: Pseudomonas aeruginosa; clinical isolate GN 1035 | Pseudomonas aeruginosa; clinical isolate GN 2565 | Pseudomonas aeruginosa; clinical isolate S-3 | Pseudomonas aeruginosa; clinical isolate S-4
25 µg/mL: Pseudomonas aeruginosa; clinical isolate GN 244 | Pseudomonas aeruginosa; clinical isolate GN 383 | Pseudomonas aeruginosa; clinical isolate S-1 | Pseudomonas aeruginosa; clinical isolate S-2

Cc1nnc(SCC2=C(C(=O)O)N3C(=O)[C@@H](NC(=O)Cn4cnnn4)[C@H]3SC2)s1 [Sodium Cephazolin, SodiumCephazolin, reference compound]
3.13 µg/mL: Escherichia coli; clinical isolate K-4 | Klebsiella pneumoniae [4]; clinical isolate GN 4081 | Klebsiella pneumoniae [4]; clinical isolate GN 4117
0.78 µg/mL: Staphylococcus aureus; clinical isolate F-1 | Staphylococcus aureus; clinical isolate F-5
> 200 µg/mL: [2] | Escherichia coli; clinical isolate K-3 | Pseudomonas aeruginosa; clinical isolate GN 82 | Pseudomonas aeruginosa; clinical isolate GN 163 | Pseudomonas aeruginosa; clinical isolate GN 221 | Pseudomonas aeruginosa; clinical isolate GN 244 | Pseudomonas aeruginosa; clinical isolate GN 376 | Pseudomonas aeruginosa; clinical isolate GN 383 | Pseudomonas aeruginosa; clinical isolate GN 1035 | Pseudomonas aeruginosa; clinical isolate GN 1091 | Pseudomonas aeruginosa; clinical isolate GN 2565 | Pseudomonas aeruginosa; clinical isolate GN 2987 | Pseudomonas aeruginosa; clinical isolate S-1 | Pseudomonas aeruginosa; clinical isolate S-2 | Pseudomonas aeruginosa; clinical isolate S-3 | Pseudomonas aeruginosa; clinical isolate S-4
1.56 µg/mL: Escherichia coli; clinical isolate GN 3435 | Escherichia coli; clinical isolate GN 3452 | Escherichia coli; clinical isolate GN 3481 | Escherichia coli; clinical isolate K-1 | Escherichia coli; clinical isolate K-2 | Klebsiella pneumoniae [4]; clinical isolate GN 917
200 µg/mL: Klebsiella pneumoniae [1]
25 µg/mL: Escherichia coli; clinical isolate GN 3611
< 1.57 µg/mL: Escherichia coli NIHJ | [3]
1.57 µg/mL: Proteus vulgaris 3027
< 0.4 µg/mL: Staphylococcus aureus; clinical isolate F-2 | Staphylococcus aureus; clinical isolate F-3 | Staphylococcus aureus; clinical isolate F-4 | Staphylococcus aureus; clinical isolate MS 8588 | Staphylococcus aureus; clinical isolate MS 8596 | Staphylococcus aureus; clinical isolate MS 8619 | Staphylococcus aureus; clinical isolate MS 8684 | Staphylococcus aureus; clinical isolate MS 8713

CN1CCN(C(=O)N[C@@H](C(=O)N[C@@H]2C(=O)N3[C@@H]2SC(C)(C)[C@@H]3C(=O)OCCN2CCCCC2)c2ccccc2)C(=O)C1=O (single isomer, unassigned) [compound 53]
6.25 µg/mL: [2]
25 µg/mL: Klebsiella pneumoniae [1]
< 0.4 µg/mL: Escherichia coli NIHJ
0.79 µg/mL: Proteus vulgaris 3027 | [3]

CC1(C)S[C@@H]2[C@H](NC(=O)[C@H](NC(=O)N3CCN(c4ccccc4)C(=O)C3=O)c3ccccc3)C(=O)N2[C@H]1C(=O)O (single isomer, unassigned) [compound 43]
< 1.57 µg/mL: Escherichia coli NIHJ | Proteus vulgaris 3027 | [3]
6.25 µg/mL: [2]
1.57 µg/mL: Klebsiella pneumoniae [1]

CCCCCCCCCCCCN1CCN(C(=O)N[C@@H](C(=O)N[C@@H]2C(=O)N3[C@@H]2SC(C)(C)[C@@H]3C(=O)O)c2ccccc2)CC1=O [compound 31]
< 1.57 µg/mL: Escherichia coli NIHJ | Proteus vulgaris 3027 | [3]
12.5 µg/mL: [2]
6.25 µg/mL: Klebsiella pneumoniae [1]
